Measured values as given in the supplement of paper PMC10307832.

Experiments:
Test in all cases: relative viability (nuclei count vs DMSO), 5 days (fraction); higher = more cells survive
[1] = compound: CN[C@@H]1C[C@H]2O[C@@](C)([C@@H]1OC)n1c3ccccc3c3c4c(c5c6ccccc6n2c5c31)C(=O)NC4 [Staurosporine] + CS(=O)(=O)N1CCN(Cc2cc3nc(-c4cccc5[nH]ncc45)nc(N4CCOCC4)c3s2)CC1 [Pictilisib] (partner 1 µM)
In short: (§1)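 Relative viability divides the nuclei count in treated wells by that in vehicle wells. Lung cancer cell lines were seeded in 1536-well plates, dosed by pin tool the next day, and fixed and stained after 5 days in one step with final 0.05% Triton X-100, 1% formaldehyde and 1 ug/ml Hoechst. Dosing was a single drug or a fixed anchor-drug dose plus five library-drug doses (not always all listed) in √10 steps, and values are medians of duplicate plates imaged at 4×.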

[2] = compound: CN[C@@H]1C[C@H]2O[C@@](C)([C@@H]1OC)n1c3ccccc3c3c4c(c5c6ccccc6n2c5c31)C(=O)NC4 [Staurosporine] + O=C(c1cc(Cc2n[nH]c(=O)c3ccccc23)ccc1F)N1CCN(C(=O)C2CC2)CC1 [Olaparib] (partner 8 µM)
In short: as §1

[3] = compound: CC1=C(CC(=O)O)c2cc(F)ccc2/C1=C\c1ccc([S+](C)[O-])cc1 [Sulindac] + CC(=O)Nc1cccc(-n2c(=O)n(C3CC3)c(=O)c3c(Nc4ccc(I)cc4F)n(C)c(=O)c(C)c32)c1 [Trametinib] (partner 0.02 µM)
In short: as §1

[4] = compound: CC1=C(CC(=O)O)c2cc(F)ccc2/C1=C\c1ccc([S+](C)[O-])cc1 [Sulindac] + C[C@@H](Oc1cc(-c2cnn(C3CCNCC3)c2)cnc1N)c1c(Cl)ccc(F)c1Cl [Crizotinib] (partner 1 µM)
In short: as §1

Cell Line | relative viability ([1]; first compound 0.005 µM) | relative viability ([1]; first compound 0.01581 µM) | relative viability ([1]; first compound 0.05 µM) | relative viability ([1]; first compound 0.1581 µM) | relative viability ([1]; first compound 0.5 µM) | relative viability ([2]; first compound 0.005 µM) | relative viability ([2]; first compound 0.01581 µM) | relative viability ([2]; first compound 0.05 µM) | relative viability ([2]; first compound 0.1581 µM) | relative viability ([2]; first compound 0.5 µM) | relative viability ([3]; first compound 0.08 µM) | relative viability ([3]; first compound 0.253 µM) | relative viability ([3]; first compound 0.8 µM) | relative viability ([3]; first compound 2.53 µM) | relative viability ([3]; first compound 8 µM) | relative viability ([4]; first compound 0.08 µM) | relative viability ([4]; first compound 0.253 µM) | relative viability ([4]; first compound 0.8 µM) | relative viability ([4]; first compound 2.53 µM) | relative viability ([4]; first compound 8 µM)
H3255 | 0.325 | 0.238 | 0.145 | 0.135 | 0.0752 | 0.447 | 0.315 | 0.28 | 0.24 | 0.155 | 0.635 | 0.661 | 0.509 | 0.699 | 0.656 | 0.829 | 1.04 | 0.891 | 0.917 | 1.05
EMC-BAC-2 | 0.29 | 0.129 | 0.141 | 0.195 | 0.176 | 0.245 | 0.162 | 0.172 | 0.177 | 0.19 | 1.03 | 0.917 | 0.794 | 0.794 | 0.994 | 0.788 | 0.778 | 0.585 | 0.779 | 0.91
CAL-12T | 0.303 | 0.0968 | 0.135 | 0.19 | 0.218 | 0.441 | 0.253 | 0.252 | 0.148 | 0.163 | 0.285 | 0.357 | 0.343 | 0.312 | 0.361 | 0.689 | 0.661 | 0.563 | 0.629 | 0.797
NCI-H727 | 0.486 | 0.293 | 0.2 | 0.223 | 0.12 | 0.638 | 0.422 | 0.413 | 0.434 | 0.419 | 0.362 | 0.414 | 0.378 | 0.417 | 0.35 | 0.964 | 0.779 | 0.782 | 0.856 | 1.03
SK-MES-1 | 0.328 | 0.265 | 0.173 | 0.182 | 0.19 | 0.299 | 0.192 | 0.158 | 0.132 | 0.156 | 0.563 | 0.555 | 0.538 | 0.561 | 0.579 | 1.14 | 1.09 | 0.822 | 1.09 | 1.14
NCI-H1355 | 0.277 | 0.157 | 0.215 | 0.153 | 0.152 | 0.751 | 0.289 | 0.253 | 0.185 | 0.173 | 0.389 | 0.462 | 0.312 | 0.43 | 0.42 | 1.27 | 1.15 | 0.954 | 1.07 | 1.11
PC-3 [JPC-3] | 0.655 | – | 0.446 | 0.271 | 0.242 | 1.03 | 0.603 | 0.569 | 0.385 | 0.332 | 0.668 | 0.659 | 0.701 | 0.695 | 0.725 | 1.09 | 1.06 | 0.959 | 1.02 | 1.02
LK-2 | 0.789 | 0.812 | 0.466 | 0.199 | 0.0791 | – | 0.432 | 0.518 | 0.289 | 0.0843 | 0.854 | 0.746 | 0.705 | 0.617 | 0.944 | 0.185 | 0.243 | – | – | 0.216
NCI-H1650 | 0.284 | 0.141 | 0.138 | 0.15 | 0.107 | 0.703 | 0.598 | 0.385 | 0.306 | 0.0918 | 0.599 | 0.794 | 0.445 | 0.491 | 0.766 | 1.17 | 0.878 | 0.912 | 0.979 | 1.02
NCI-H1734 | 0.317 | 0.175 | 0.174 | 0.105 | 0.0965 | 0.566 | 0.354 | 0.257 | 0.194 | 0.0713 | 0.673 | 0.725 | 0.575 | 0.693 | 0.832 | 0.658 | 0.754 | 0.583 | 0.703 | 0.787
NCI-H441 | 0.426 | 0.152 | 0.178 | 0.155 | 0.12 | 0.352 | 0.319 | 0.205 | 0.176 | 0.115 | 0.423 | 0.579 | 0.331 | 0.492 | 0.494 | 0.709 | 0.719 | 0.626 | 0.651 | 0.946
NCI-H838 | 0.19 | 0.151 | 0.172 | 0.144 | 0.126 | 0.24 | 0.175 | 0.154 | 0.122 | 0.0873 | 0.608 | 0.559 | 0.456 | 0.527 | 0.584 | 1.12 | 0.781 | 0.674 | 0.903 | 0.884
NCI-H23 | 0.319 | 0.114 | – | 0.162 | 0.113 | 0.232 | 0.138 | 0.183 | 0.135 | 0.102 | 0.39 | 0.403 | 0.333 | 0.364 | 0.356 | 0.39 | 0.643 | 0.359 | 0.689 | 0.504
NCI-H647 | 0.292 | 0.125 | 0.148 | 0.118 | 0.0831 | 0.275 | 0.199 | 0.0866 | 0.0394 | 0.0357 | 0.577 | 0.591 | 0.358 | 0.472 | 0.61 | 1.4 | 1.21 | 0.879 | 1.26 | 1.35
NCI-H520 | 0.484 | 0.206 | 0.39 | 0.178 | 0.159 | 0.347 | 0.302 | 0.211 | 0.138 | 0.139 | 0.787 | 0.707 | 0.642 | 0.691 | 0.699 | 0.801 | 0.747 | 0.445 | 0.828 | 0.876
